Common to all, as to format: cell-based
Experiment [1] relates to DENV2 replicon. The experiment is described as follows: DENV-2 Huh-7 Rep EC50 (replicon luminescence). To be noted: Dengue virus, DENV2, Huh-7, 48 h, read-out: DENV-2 Huh-7 Rep EC50. Summed up: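 Huh-7 cells carrying a DENV2 replicon, 5,000 cells/well, were incubated with dosed compounds for 48 h at 37° C. EnduRen live-cell substrate was added 1.5 h before luminescence reading. EC50 came from dose-response against DMSO-only wells.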
On the technique in general: In antiviral work, replicon cells carry a viral genome segment that copies itself.

The subject of experiment [2] is RSV strain A2. The experiment is described as follows: RSV HEp-2 EC50 (infectious cytopathic cell protection assay). To be noted: human respiratory syncytial virus, HEp-2 cells, RSV A2, 4 days, read-out: RSV HEp-2 EC50. Summed up:
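HEp-2 cells mixed with titered RSV A2 at 50,000 cells/ml were added to plates holding 3-fold serial compound dilutions in DMSO, then incubated 4 days at 37° C. Cytoprotection was read as cell viability by CellTiter-Glo luminescence and converted to percent inhibition against 0% and 100% inhibition controls.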

Experiment [3] relates to RSV A2. The experiment is described as follows: RSV NHBE EC50 (RSV A2 antiviral assay in normal human bronchial epithelial cells). To be noted: human respiratory syncytial virus, 96 h, NHBE cells, RSV A2, 4 days, read-out: RSV NHBE EC50.
Experiment [4] relates to HRV16. The experiment is described as follows: HRV16 HELA EC50 (cytopathic effect in H1-HeLa cells). Summed up:
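H1-HeLa cells seeded one day before, given 3-fold serial compound dilutions in triplicate just prior to infection with pre-titrated virus. Incubated 96 h at 33 °C/5% CO2; protection from cytopathic effect read as viability by CellTiter-Glo luminescence, normalised to infected untreated (0%) and uninfected (100%) controls.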
A general note: Cytopathic effects are the visible damage that an infection or toxin causes in cultured cells.

The mark [5] stands for this setting: 96 h, H1-HeLa cells, 33° C., read-out: HRV16 HELA EC50.
The mark [6] stands for this setting: H1-HeLa cells, 96 h, 33° C.; read-out: HRV16 HELA EC50.

Structures are written as SMILES. Like-named read-outs stand apart in the source and are kept apart here.

The EC50 is the midpoint of the concentration-response curve.

As for `COC(C)(C)COC(=O)[C@H](C)NP(=O)(OC[C@@]1(C#N)O[C@@H](c2ccc3c(N)ncnn23)[C@H](O)[C@@H]1O)Oc1ccccc1` (stereo partly drawn) [Example 164, 2-methoxy-2-methylpropyl ((((2R,3S,4R,5S)-5-(4-aminopyrrolo[2,1-f][1,2,4]triazin-7-yl)-2-cyano-3,4-dihydroxytetrahydrofuran-2-yl)methoxy)(phenoxy)phosphoryl)-L-alaninate], the EC50 is above 50000 nM in experiment [1] (Huh-7 replicon cells, 48 hours); 1220 nM in experiment [2] (HEp-2, 96 h); 724 nM in experiment [3] (NHBE); 4000 nM in experiment [4] (setting [5]).

Regarding `COC1CCC(OC(=O)[C@H](C)NP(=O)(OC[C@@]2(C#N)O[C@@H](c3ccc4c(N)ncnn34)[C@H](O)[C@@H]2O)Oc2ccccc2)CC1` (stereo partly drawn) [Example 165, 4-methoxycyclohexyl ((((2R,3S,4R,5S)-5-(4-aminopyrrolo[2,1-f][1,2,4]triazin-7-yl)-2-cyano-3,4-dihydroxytetrahydrofuran-2-yl)methoxy)(phenoxy)phosphoryl)alaninate], the EC50 in experiment [1] (Huh-7 replicon cells, 48 hours) is above 100000 nM; in experiment [2] (HEp-2, 96 h), 1940 nM; in experiment [3] (NHBE) it was 1610 nM; in experiment [4] (setting [5]), 11300 nM.

Take `N#C[C@]1(COP(=O)(NCCOC(=O)C2CCCCC2)Oc2ccccc2)O[C@@H](c2ccc3c(N)ncnn23)[C@H](O)[C@@H]1O` (stereo partly drawn) [Example 166, 2-(((((2R,3S,4R,5S)-5-(4-aminopyrrolo[2,1-f][1,2,4]triazin-7-yl)-2-cyano-3,4-dihydroxytetrahydrofuran-2-yl)methoxy)(phenoxy)phosphoryl)amino)ethyl cyclohexane carboxylate]: the EC50 in experiment [1] (Huh-7 replicon cells, 48 hours) came out at 22100 nM; in experiment [2] (HEp-2, 96 h), 83 nM; in experiment [3] (NHBE), 624 nM; in experiment [4] (setting [5]) it was 336 nM.

As for `C=CCO[C@H](COCCCCCCCCCCCCCCCCCC)COP(=O)(O)OC[C@@]1(C#N)O[C@@H](c2ccc3c(N)ncnn23)[C@H](O)[C@@H]1O` [Example 167, (R)-2-(allyloxy)-3-(octadecyloxy)propyl (((2R,3S,4R,5S)-5-(4-aminopyrrolo[2,1-f][1,2,4]triazin-7-yl)-2-cyano-3,4-dihydroxytetrahydrofuran-2-yl)methyl) hydrogen phosphate], the EC50 in experiment [1] was above 100000 nM; in experiment [2] (96 h) it was 647 nM; in experiment [3] it was 359 nM; in experiment [4] (setting [6]), 12000 nM.

Take `C[C@H](N[P@](=O)(OC[C@@]1(C#N)O[C@@H](c2ccc3c(N)ncnn23)[C@@H]2OC(=O)O[C@@H]21)Oc1ccccc1)C(=O)OC1CCCCC1` [Example 168, cyclohexyl ((S)-(((3aS,4R,6S,6aS)-6-(4-aminopyrrolo[2,1-f][1,2,4]triazin-7-yl)-4-cyano-2-oxotetrahydrofuro[3,4-d][1,3]dioxol-4-yl)methoxy)(phenoxy)phosphoryl)-L-alaninate]: the EC50 in experiment [1] (Huh-7 replicon cells, 48 hours) was determined as 4670 nM; in experiment [2] (HEp-2, 96 h), 53 nM; in experiment [3] (NHBE) it was 103 nM; in experiment [4] (setting [5]), 160 nM.

With `C[C@H](NP(=O)(OC[C@@]1(C#N)O[C@@H](c2ccc3c(N)ncnn23)[C@H](O)[C@@H]1O)Oc1ccccc1)C(=O)OC1CCCCCCC1` (stereo partly drawn) [Example 171, cyclooctyl ((((2R,3S,4R,5S)-5-(4-aminopyrrolo[2,1-f][1,2,4]triazin-7-yl)-2-cyano-3,4-dihydroxytetrahydrofuran-2-yl)methoxy)(phenoxy)phosphoryl)-L-alaninate], the EC50 in experiment [1] (Huh-7 replicon cells, 48 hours) worked out at 31500 nM; in experiment [2] (HEp-2, 96 h), 220 nM; in experiment [3] (NHBE), 375 nM; in experiment [4] (setting [5]), 582 nM.

With `CC(C)COC(=O)OCCNP(=O)(OC[C@@]1(C#N)O[C@@H](c2ccc3c(N)ncnn23)[C@H](O)[C@@H]1O)Oc1ccccc1` (stereo partly drawn) [Example 177, 2-(((((2R,3S,4R,5S)-5-(4-aminopyrrolo[2,1-f][1,2,4]triazin-7-yl)-2-cyano-3,4-dihydroxytetrahydrofuran-2-yl)methoxy)(phenoxy)phosphoryl)amino)ethyl isobutyl carbonate], the EC50 in experiment [1] (Huh-7 replicon cells, 48 hours) was above 50000 nM; in experiment [2] (HEp-2, 96 h) it was 104 nM; in experiment [3] (NHBE) it was 1560 nM; in experiment [4] (setting [5]) it was 1160 nM.

As to `C[C@H](NP(=O)(N[C@@H](C)C(=O)OCC(C)(C)C)OC[C@@]1(C#N)O[C@@H](c2ccc3c(N)ncnn23)[C@H](O)[C@@H]1O)C(=O)OCC(C)(C)C` [Example 182], the EC50 is above 50000 nM in experiment [1], 1170 nM in experiment [2] (96 h), 2090 nM in experiment [3] and 8560 nM in experiment [4] (setting [6]).

For the compound `C[C@H](NP(=O)(OC[C@@]1(C#N)O[C@@H](c2ccc3c(N)ncnn23)[C@H](O)[C@@H]1O)Oc1ccccc1)C(=O)OC1CCC(C)(C)CC1` (stereo partly drawn) [Example 183, 4,4-dimethylcyclohexyl ((((2R,3S,4R,5S)-5-(4-aminopyrrolo[2,1-f][1,2,4]triazin-7-yl)-2-cyano-3,4-dihydroxytetrahydrofuran-2-yl)methoxy)(phenoxy)phosphoryl)-L-alaninate], the EC50 came out at 17300 nM in experiment [1] (Huh-7 replicon cells, 48 hours); 80 nM in experiment [2] (HEp-2, 96 h); 1200 nM in experiment [3] (NHBE); 173 nM in experiment [4] (setting [5]).

For `CC(=O)N1CCC(OC(=O)C(C)NP(=O)(OC[C@@]2(C#N)O[C@@H](c3ccc4c(N)ncnn34)[C@H](O)[C@@H]2O)Oc2ccccc2)CC1` (stereo partly drawn) [Example 185, 1-acetylpiperidin-4-yl ((((2R,3S,4R,5S)-5-(4-aminopyrrolo[2,1-f][1,2,4]triazin-7-yl)-2-cyano3,4-dihydroxytetrahydrofuran-2-yl)methoxy)(phenoxy)phosphoryl)alaninate], the EC50 was above 100000 nM in experiment [1] (Huh-7 replicon cells, 48 hours); 7940 nM in experiment [2] (HEp-2, 96 h); above 5000 nM in experiment [3] (NHBE); above 80200 nM in experiment [4] (setting [5]).

As to `C[C@H](NP(=O)(OC[C@@]1(C#N)O[C@@H](c2ccc3c(N)ncnn23)[C@H](O)[C@@H]1O)Oc1ccccc1)C(=O)O[C@H]1CC[C@H](c2ccccc2)CC1` (stereo partly drawn) [Example 186, trans-4-phenylcyclohexyl ((((2R,3S,4R,5S)-5-(4-aminopyrrolo[2,1-f][1,2,4]triazin-7-yl)-2-cyano-3,4-dihydroxytetrahydrofuran-2-yl)methoxy)(phenoxy)phosphoryl)-L-alaninate], the EC50 came to 60300 nM in experiment [1] (Huh-7 replicon cells, 48 hours); 2770 nM in experiment [2] (HEp-2, 96 h); 70 nM in experiment [3] (NHBE); 4750 nM in experiment [4] (setting [5]).

In the case of `CCCCCCCCCCCCCCCCOCCCNP(=O)(OC[C@@]1(C#N)O[C@@H](c2ccc3c(N)ncnn23)[C@H](O)[C@@H]1O)Oc1ccccc1` (stereo partly drawn) [Example 187, ((2R,3S,4R,5S)-5-(4-aminopyrrolo[2,1-f][1,2,4]triazin-7-yl)-2-cyano-3,4-dihydroxytetrahydrofuran-2-yl)methyl phenyl (3-(hexadecyloxy)propyl)phosphoramidate], the 50% effective concentration (EC50) was 9350 nM in experiment [1] (Huh-7 replicon cells, 48 hours); 1480 nM in experiment [2] (HEp-2, 96 h); above 5000 nM in experiment [3] (NHBE); 20600 nM in experiment [4] (setting [5]).

For the compound `CCCCCCCCCCCCCCCCCCOC[C@H](COC(=O)C(C)NP(=O)(OC[C@@]1(C#N)O[C@@H](c2ccc3c(N)ncnn23)[C@H](O)[C@@H]1O)Oc1ccccc1)OCc1ccccc1` (stereo partly drawn) [Example 190, (R)-2-(benzyloxy)-3-(octadecyloxy)propyl ((((2R,3S,4R,5S)-5-(4-aminopyrrolo[2,1-f][1,2,4]triazin-7-yl)-2-cyano3,4-dihydroxytetrahydrofuran-2-yl)methoxy)(phenoxy)phosphoryl)alaninate], the EC50 in experiment [1] (Huh-7 replicon cells, 48 hours) is above 100000 nM; in experiment [2] (HEp-2, 96 h), 136 nM; in experiment [3] (NHBE), 2060 nM; in experiment [4] (setting [5]), 2640 nM.

`CCCCCCCCCCCCCCCCCCOC(=O)[C@H](C)NP(=O)(OC[C@@]1(C#N)O[C@@H](c2ccc3c(N)ncnn23)[C@H](O)[C@@H]1O)Oc1ccccc1` (stereo partly drawn) [Example 193, octadecyl ((((2R,3S,4R,5S)-5-(4-aminopyrrolo[2,1-f][1,2,4]triazin-7-yl)-2-cyano-3,4-dihydroxytetrahydrofuran-2-yl)methoxy)(phenoxy)phosphoryl)-L-alaninate]: the EC50 in experiment [1] (Huh-7 replicon cells, 48 hours) is above 50000 nM; in experiment [2] (HEp-2, 96 h) it was 244 nM; in experiment [3] (NHBE), 469 nM; in experiment [4] (setting [5]) it was 750 nM.

Consider `CCCCCCCCCCCCCCCCOCCCOC(=O)[C@H](C)NP(=O)(OC[C@@]1(C#N)O[C@@H](c2ccc3c(N)ncnn23)[C@H](O)[C@@H]1O)Oc1ccccc1` (stereo partly drawn) [Example 198, 3-(hexadecyloxy)propyl ((((2R,3S,4R,5S)-5-(4-aminopyrrolo[2,1-f][1,2,4]triazin-7-yl)-2-cyano-3,4-dihydroxytetrahydrofuran-2-yl)methoxy)(phenoxy)phosphoryl)alaninate], for which the EC50 in experiment [1] (Huh-7 replicon cells, 48 hours) came out at 39100 nM; in experiment [2] (HEp-2, 96 h), 618 nM; in experiment [3] (NHBE), 37 nM; in experiment [4] (setting [5]), 548 nM.

These data come from patent US20230295201A1 (Gilead Sciences, Inc., priority 2020, published 2023).
